We go through 18 compounds from ChEMBL document CHEMBL5370549, “Optimization and evaluation of pyridinyl vinyl sulfones as Nrf2 activator for the antioxidant and anti-inflammatory effects” (Eur J Med Chem, 2023).

Counter-ions that a name gives are not always drawn. Where only a bound is given, the exact number is not on record here.

Data set [1] addresses T1, Nuclear factor erythroid 2-related factor 2 (Homo sapiens, UniProt Q16236).
T1 sequence (Q16236 whole entry): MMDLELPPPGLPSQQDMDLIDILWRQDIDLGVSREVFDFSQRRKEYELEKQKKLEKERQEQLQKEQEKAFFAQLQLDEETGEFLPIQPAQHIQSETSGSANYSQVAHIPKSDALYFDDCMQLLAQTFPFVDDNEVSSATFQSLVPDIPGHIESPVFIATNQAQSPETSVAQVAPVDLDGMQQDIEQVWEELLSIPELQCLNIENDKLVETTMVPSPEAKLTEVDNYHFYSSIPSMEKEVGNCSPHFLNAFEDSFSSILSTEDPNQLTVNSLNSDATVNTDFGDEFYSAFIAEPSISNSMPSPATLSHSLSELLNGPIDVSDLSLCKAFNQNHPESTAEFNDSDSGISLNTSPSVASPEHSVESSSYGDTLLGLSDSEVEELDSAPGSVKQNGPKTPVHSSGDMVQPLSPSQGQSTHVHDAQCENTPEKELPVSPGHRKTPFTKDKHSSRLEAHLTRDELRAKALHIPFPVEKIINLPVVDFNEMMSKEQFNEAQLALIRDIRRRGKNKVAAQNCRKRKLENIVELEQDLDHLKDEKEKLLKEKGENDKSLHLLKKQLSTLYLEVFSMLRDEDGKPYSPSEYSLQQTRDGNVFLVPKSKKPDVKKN
The data set is described as follows: Activation of Nrf2 in human U2OS cells co-expressing Keap1 assessed as induction of Nrf2 nuclear translocation incubated for 6 hrs by PathHunter chemiluminescence based analysis. In kind it is cell-based.

For data set [2], the target named is CYP2C9 (Homo sapiens, UniProt P11712). The data set is described as follows: Inhibition of CYP2C9 (unknown origin) assessed as enzyme activity at 10 uM relative to control. Format: ADME. Also noted: scale not given: the % may be the effect or the level left. The conditions noted are these: read-out: Activity.
Sequence of CYP2C9 (P11712 whole entry): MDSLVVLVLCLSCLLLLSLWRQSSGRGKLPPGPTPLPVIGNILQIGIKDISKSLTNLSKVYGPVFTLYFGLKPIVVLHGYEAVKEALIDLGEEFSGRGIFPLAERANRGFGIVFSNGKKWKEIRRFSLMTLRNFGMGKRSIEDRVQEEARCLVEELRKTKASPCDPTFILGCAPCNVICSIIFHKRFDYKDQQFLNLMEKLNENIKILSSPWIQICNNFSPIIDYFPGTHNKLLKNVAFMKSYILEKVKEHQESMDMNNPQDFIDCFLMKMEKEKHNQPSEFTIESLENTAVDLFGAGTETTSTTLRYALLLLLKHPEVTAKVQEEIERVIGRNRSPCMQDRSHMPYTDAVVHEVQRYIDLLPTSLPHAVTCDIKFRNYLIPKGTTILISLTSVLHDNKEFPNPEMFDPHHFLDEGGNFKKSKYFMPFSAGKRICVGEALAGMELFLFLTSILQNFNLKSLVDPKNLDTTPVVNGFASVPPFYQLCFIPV
In data set [3] the target is T2, CYP1A2 (Homo sapiens, UniProt P05177).
T2 sequence (P05177 whole entry): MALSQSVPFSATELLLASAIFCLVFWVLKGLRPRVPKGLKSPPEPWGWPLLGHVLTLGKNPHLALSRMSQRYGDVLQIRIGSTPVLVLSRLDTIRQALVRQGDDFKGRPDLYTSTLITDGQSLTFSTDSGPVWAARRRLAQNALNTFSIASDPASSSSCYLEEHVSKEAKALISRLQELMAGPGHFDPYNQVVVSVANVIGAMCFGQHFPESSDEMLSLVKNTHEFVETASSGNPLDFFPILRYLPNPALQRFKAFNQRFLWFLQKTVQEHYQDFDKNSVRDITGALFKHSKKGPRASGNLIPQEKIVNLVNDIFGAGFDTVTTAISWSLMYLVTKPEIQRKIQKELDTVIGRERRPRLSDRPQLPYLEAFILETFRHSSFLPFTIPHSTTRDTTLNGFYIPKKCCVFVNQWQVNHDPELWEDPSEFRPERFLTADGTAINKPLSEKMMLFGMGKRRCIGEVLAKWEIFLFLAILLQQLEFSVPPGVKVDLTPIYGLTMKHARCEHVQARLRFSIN
As to the kind of experiment: Inhibition of CYP1A2 (unknown origin) assessed as enzyme activity at 10 uM relative to control. Details: scale not given: the % may be the effect or the level left. The conditions noted are these: read-out: Activity. Format: ADME.

Data set [4] addresses CYP3A4 (Homo sapiens, UniProt P08684). The data set is described as follows: Inhibition of CYP3A4 (unknown origin) assessed as enzyme activity at 10 uM relative to control. The conditions noted are these: read-out: Activity. Format: ADME. Also noted: scale not given: the % may be the effect or the level left.
Data set [5] has as its target CYP2C19 (Homo sapiens, UniProt P33261). As to the kind of experiment: Inhibition of CYP2C19 (unknown origin) assessed as enzyme activity at 10 uM relative to control. In kind it is ADME. Details: scale not given: the % may be the effect or the level left. The note with it: read-out: Activity.
Data set [6] can be described thus: Metabolic stability of the compound in human liver microsomes assessed as parent compound remaining measured after 30 mins. In kind it is ADME, Microsome. The conditions noted are these: read-out: Stability.
For data set [7], the target named is CYP2D6 (Homo sapiens, UniProt P10635). As to the kind of experiment: Inhibition of CYP2D6 (unknown origin) assessed as enzyme activity at 10 uM relative to control. Format: ADME. Also noted: scale not given: the % may be the effect or the level left. The note with it: read-out: Activity.
Sequence of CYP2D6 (P10635 whole entry): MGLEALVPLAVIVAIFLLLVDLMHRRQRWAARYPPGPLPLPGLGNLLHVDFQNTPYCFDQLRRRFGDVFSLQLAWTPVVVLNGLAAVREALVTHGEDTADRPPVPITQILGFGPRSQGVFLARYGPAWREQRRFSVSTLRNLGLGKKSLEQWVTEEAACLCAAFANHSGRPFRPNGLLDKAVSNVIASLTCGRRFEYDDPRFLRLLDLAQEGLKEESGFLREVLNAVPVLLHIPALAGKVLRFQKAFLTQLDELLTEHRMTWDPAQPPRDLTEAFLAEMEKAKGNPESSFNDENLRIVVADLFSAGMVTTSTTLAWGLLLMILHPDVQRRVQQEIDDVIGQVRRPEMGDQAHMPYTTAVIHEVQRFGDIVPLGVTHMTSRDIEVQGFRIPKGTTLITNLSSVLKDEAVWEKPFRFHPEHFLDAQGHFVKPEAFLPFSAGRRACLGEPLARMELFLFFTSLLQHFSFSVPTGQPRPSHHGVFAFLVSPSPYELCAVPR
A short description of data set [8]: Metabolic stability of the compound in mouse liver microsomes assessed as parent compound remaining measured after 30 mins. Format: ADME, Microsome. The note with it: read-out: Stability. Background: Liver microsomes are a subcellular fraction often used to study metabolism.
Data set [9] in a line: Metabolic stability of the compound in rat plasma assessed as parent compound remaining measured after 30 mins. Format: ADME, cell-free. The note with it: read-out: Stability.
Data set [10] in a line: Metabolic stability of the compound in human plasma assessed as parent compound remaining measured after 30 mins. The conditions noted are these: read-out: Stability. In kind it is ADME, cell-free.

Sequence of CYP3A4 (P08684 whole entry): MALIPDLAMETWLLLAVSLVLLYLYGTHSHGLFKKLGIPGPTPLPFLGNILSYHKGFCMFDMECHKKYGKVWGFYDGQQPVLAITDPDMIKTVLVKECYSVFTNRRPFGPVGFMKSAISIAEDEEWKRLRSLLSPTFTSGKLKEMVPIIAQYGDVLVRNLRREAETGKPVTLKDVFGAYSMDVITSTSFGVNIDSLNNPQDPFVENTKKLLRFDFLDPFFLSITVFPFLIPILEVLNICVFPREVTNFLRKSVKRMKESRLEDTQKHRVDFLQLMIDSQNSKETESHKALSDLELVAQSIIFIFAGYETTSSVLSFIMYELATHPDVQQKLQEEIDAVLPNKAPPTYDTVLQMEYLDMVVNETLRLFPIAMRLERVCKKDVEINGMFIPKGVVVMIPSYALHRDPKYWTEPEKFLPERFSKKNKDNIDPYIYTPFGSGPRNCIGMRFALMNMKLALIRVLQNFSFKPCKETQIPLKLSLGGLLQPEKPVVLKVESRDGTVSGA
Sequence of CYP2C19 (P33261 whole entry): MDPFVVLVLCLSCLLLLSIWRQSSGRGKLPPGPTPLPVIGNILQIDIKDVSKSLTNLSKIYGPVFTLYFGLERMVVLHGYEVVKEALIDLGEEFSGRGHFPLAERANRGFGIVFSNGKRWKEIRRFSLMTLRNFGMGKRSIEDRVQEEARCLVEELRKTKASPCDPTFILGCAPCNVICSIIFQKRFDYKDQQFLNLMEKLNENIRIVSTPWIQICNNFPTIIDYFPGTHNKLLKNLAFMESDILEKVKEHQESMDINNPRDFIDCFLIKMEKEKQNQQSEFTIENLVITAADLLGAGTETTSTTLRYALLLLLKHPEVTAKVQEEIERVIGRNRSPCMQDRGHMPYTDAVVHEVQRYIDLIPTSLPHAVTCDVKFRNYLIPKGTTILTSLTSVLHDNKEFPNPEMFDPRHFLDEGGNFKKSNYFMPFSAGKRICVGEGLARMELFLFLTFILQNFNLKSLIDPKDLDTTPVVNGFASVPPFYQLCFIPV

As a reminder, the EC50 is the concentration giving half of the maximal effect. With `COc1ncccc1S(=O)(=O)/C=C/c1ccccc1Cl`, the EC50 in data set [1] turned out to be 189 nM. In addition, the activity at 10 µM in [2] was over 99%; in data set [3], 10.7%; in data set [4], 48.5%; in data set [5], 7.1%; in [7] it was 99.5%. Further, the remaining at 0.5 h in data set [6] is 75.2%; in [8] it was 48.1%; in data set [9], 98.9%; in data set [10], over 99%.
With `COc1ccncc1S(=O)(=O)/C=C/c1ncccc1Cl`, in [1], the concentration for a half-maximal effect (EC50) is 51 nM. Further, the activity at 10 µM in data set [2] was over 99%; in data set [3], 79.5%; in data set [4] it was 15.7%; in data set [5], 42.9%; in [7], 88.7%. In addition, the remaining at 0.5 h in data set [6] is 91.4%; in data set [8] it was 77.1%.
Consider `COc1ccc(S(=O)(=O)/C=C/c2ccccc2Cl)nc1`, for which, in [1], the EC50 is 130 nM. Also, the activity at 10 µM was over 99% in data set [2]; 46.1% in data set [3]; 58.8% in data set [4]; 5.4% in data set [5]; 100% in data set [7]. For the same compound, the remaining at 0.5 h was 9.5% in [6], 5.6% in data set [8], over 99% in [9] and over 99% in [10].
With `COc1cccnc1[S+]([O-])/C=C/c1ccccc1C(F)(F)F` (stereo unspecified), the activity at 10 µM in data set [2] was 56.3%; in data set [3] it was 32.8%; in [4] it was 36.9%; in [5] it was 32.9%; in data set [7] it was 95.9%. In addition, the remaining at 0.5 h in data set [6] was 46.3%; in data set [8], 5%; in data set [9], over 99%; in data set [10], over 99%.
For `COc1ccc(S(=O)(=O)/C=C/c2ccccc2C(F)(F)F)nc1`, the EC50 in data set [1] is 245 nM. The activity at 10 µM in [2] was over 99%; in data set [3], 27.8%; in [4], 58%; in data set [5] it was 3.7%; in [7] it was 100%. Further, the remaining at 0.5 h was determined as 31.7% in [6], 2.7% in data set [8], 94.7% in data set [9] and 99% in data set [10].
In the case of `COc1ccnc(S(=O)(=O)/C=C/c2ccc(Cl)nc2)c1`, in data set [1], the EC50 was 914 nM. For the same compound, the activity at 10 µM in data set [2] is 91.7%; in data set [3], 83%; in [4], over 99%; in data set [5] it was 17.9%; in [7] it was over 99%. The remaining at 0.5 h in data set [6] was 65.8%; in [8], 82.1%; in data set [9], 97.3%; in data set [10], 98.6%.
As for `COc1cccc([S+]([O-])/C=C/c2ccccc2C(F)(F)F)n1` (stereo unspecified), the activity at 10 µM in data set [2] was determined as 78.3%; in [3], 4.9%; in data set [4] it was 38.3%; in data set [5] it was 5.5%; in data set [7], 72.6%. Besides, the remaining at 0.5 h came to 6.3% in data set [6], 1.1% in data set [8], 89.8% in data set [9] and 82.4% in data set [10].
As for `COc1ccnc(S(=O)(=O)/C=C/c2ncccc2C(F)(F)F)c1`, the 50% effective concentration (EC50) in data set [1] turned out to be 174 nM. For the same compound, the activity at 10 µM in data set [2] is 31%; in data set [3], 72.2%; in data set [4], 83.2%; in data set [5], 29.8%; in [7], over 99%. In addition, the remaining at 0.5 h in data set [6] turned out to be 63.2%; in data set [8], 19%; in data set [9] it was 82.4%; in [10] it was 90.9%.
Take `COc1cccnc1/C=C/S(=O)(=O)c1ncccc1OC`: the EC50 in [1] was 1870 nM. Further, the activity at 10 µM in data set [2] is 66.5%; in data set [3] it was 82.1%; in data set [4] it was over 99%; in [5], over 99%; in [7] it was 91.9%. Besides, the remaining at 0.5 h in data set [6] and in [8] was over 99% throughout.
Turning to `COc1ccnc(S(=O)(=O)/C=C/c2ccccc2C(F)(F)F)c1`, the concentration giving a half-maximal response (EC50) in data set [1] was found to be 115 nM. Besides, the activity at 10 µM is 38.2% in data set [2]; 33.8% in [3]; 39.8% in data set [4]; 14.9% in [5]; 96.3% in data set [7]. In addition, the remaining at 0.5 h in [6] was 58.5%; in data set [8], 1.6%; in [9] it was 95.3%; in data set [10], 99%.
In the case of `COc1ccnc(S(=O)(=O)/C=C/c2ccnc(Cl)c2)c1`, the EC50 in [1] was determined as 400 nM. In addition, the activity at 10 µM was over 99% in data set [2]; 89.6% in data set [3]; over 99% in data set [4]; 24.3% in [5]; over 99% in data set [7]. Further, the remaining at 0.5 h was determined as 88.4% in data set [6], 64.5% in data set [8], 59% in data set [9] and 93.1% in data set [10].
Take `COc1ncccc1S(=O)(=O)/C=C/c1ncccc1C(F)(F)F`: the half-maximal effective concentration (EC50) in data set [1] was 214 nM. Also, the activity at 10 µM in data set [2] was over 99%; in data set [3] it was 57.3%; in data set [4], 51.7%; in data set [5], 17.6%; in [7] it was over 99%. For the same compound, the remaining at 0.5 h in [6] was 59.4%; in [8], 29.9%; in data set [9], 88.6%; in data set [10], 97.4%.
Consider `COC(=O)/C=C/C(=O)OC` [DIMETHYL FUMARATE], for which the EC50 in [1] turned out to be 5110 nM.
For the compound `COc1ccncc1S(=O)(=O)/C=C/c1ccccc1C(F)(F)F`, in data set [1], the EC50 was found to be 248 nM. The activity at 10 µM in data set [2] was over 99%; in data set [3], 12.1%; in data set [4] it was 12%; in [5], 23.5%; in data set [7], 85.1%. Further, the remaining at 0.5 h was 82.9% in data set [6] and 71.9% in data set [8].
For `COC(=O)/C=C/C(=O)O` [MONOMETHYL FUMARATE], the half-maximal effective concentration (EC50) in data set [1] is over 10000 nM.
With `COc1ccnc([S+]([O-])/C=C/c2ccccc2C(F)(F)F)c1` (stereo unspecified), the activity at 10 µM in data set [2] was 81.9%; in [3], 34.3%; in data set [4] it was 45.1%; in [5] it was 6.4%; in data set [7], 85.7%. Further, the remaining at 0.5 h in data set [6] was 40.6%; in [8], 1.4%; in data set [9], 92.2%; in data set [10] it was 96%.
As to `COc1ccc([S+]([O-])/C=C/c2ccccc2C(F)(F)F)nc1` (stereo unspecified), the activity at 10 µM in data set [2] was over 99%; in [3] it was 48.8%; in data set [4], 78%; in data set [5] it was 2.5%; in [7] it was 94%. In addition, the remaining at 0.5 h was 28% in [6], 1% in data set [8], 89% in data set [9] and over 99% in data set [10].
As for `COc1cccnc1C(=O)/C=C/c1ccccc1C(F)(F)F`, the activity at 10 µM was over 99% in data set [2]; 3.7% in data set [3]; 27.4% in data set [4]; 8.2% in data set [5]; 91.3% in data set [7]. Also, the remaining at 0.5 h was 1% in [6], 1.4% in data set [8], 94.3% in [9] and 96.5% in data set [10].
